Data set [1] addresses T1, Discoidin domain-containing receptor 2 (Homo sapiens, UniProt Q16832).
T1 sequence (Q16832 whole entry): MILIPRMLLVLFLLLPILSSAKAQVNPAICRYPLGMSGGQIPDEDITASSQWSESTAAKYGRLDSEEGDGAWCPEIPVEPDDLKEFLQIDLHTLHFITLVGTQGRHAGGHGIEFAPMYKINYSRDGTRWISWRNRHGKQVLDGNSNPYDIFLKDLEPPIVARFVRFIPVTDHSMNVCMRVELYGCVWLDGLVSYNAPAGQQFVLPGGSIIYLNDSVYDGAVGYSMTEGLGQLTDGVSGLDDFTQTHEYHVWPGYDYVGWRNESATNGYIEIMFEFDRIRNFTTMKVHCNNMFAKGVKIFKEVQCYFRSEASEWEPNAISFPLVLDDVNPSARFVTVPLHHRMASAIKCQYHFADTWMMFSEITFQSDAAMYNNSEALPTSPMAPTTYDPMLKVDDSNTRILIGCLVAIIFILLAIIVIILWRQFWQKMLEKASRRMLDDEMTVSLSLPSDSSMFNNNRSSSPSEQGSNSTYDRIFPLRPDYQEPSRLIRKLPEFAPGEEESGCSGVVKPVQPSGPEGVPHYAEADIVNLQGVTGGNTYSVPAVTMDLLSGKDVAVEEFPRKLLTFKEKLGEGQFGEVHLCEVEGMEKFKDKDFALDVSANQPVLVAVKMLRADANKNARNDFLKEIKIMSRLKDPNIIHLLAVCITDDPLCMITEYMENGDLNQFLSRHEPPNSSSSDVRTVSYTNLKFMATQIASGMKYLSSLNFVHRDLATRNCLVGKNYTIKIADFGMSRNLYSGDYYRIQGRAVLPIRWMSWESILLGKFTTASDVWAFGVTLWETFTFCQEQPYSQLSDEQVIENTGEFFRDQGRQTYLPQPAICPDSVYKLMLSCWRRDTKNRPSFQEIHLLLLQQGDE
The experiment in a line: Inhibition of kinase tracer 178 binding to recombinant human His-tagged DDR2 expressed in baculovirus infected Sf9 cells incubated for 1 hr by TR-FRET based LanthaScreen Eu kinase binding assay.

A short description of data set [2]: Cytotoxicity against mesangial cells (unknown origin) expressing Hu-DDR1b assessed as reduction in cell viability at 10 uM incubated for 24 hrs by microscopic analysis. The class given is cell-based.
Data set [3] can be described thus: Metabolic stability in rat liver microsomes assessed as […] at 1 uM incubated for 5 mins followed by NADPH addition and measured upto 45 mins by LC/MS/MS analysis. The class given is ADME, Microsome. The following applies: read-out: CLH.
The nature of data set [4]: Oral bioavailability in Sprague-Dawley rat at 3 mg/kg measured upto 24 hrs by LC/MS/MS analysis. The class given is ADME, organism-based. The settings on record: in vivo.
Data set [5] is described as follows: Clearance in Sprague-Dawley rat at 0.5 mg/kg, iv or 3 mg/kg, po measured upto 24 hrs by LC/MS/MS analysis. The data set is classed as ADME, organism-based. The settings on record: in vivo.
Data set [6] is described as follows: Volume of distribution at steady state in Sprague-Dawley rat at 0.5 mg/kg, iv or 3 mg/kg, po measured upto 24 hrs by LC/MS/MS analysis. The settings on record: in vivo, read-out: Vdss. The class given is ADME, organism-based.
The nature of data set [7]: Tmax in Sprague-Dawley rat at 3 mg/kg, po measured upto 24 hrs by LC/MS/MS analysis. The data set is classed as ADME, organism-based. The following applies: in vivo.
The nature of data set [8]: Fraction unbound in rat plasma incubated for 4 hrs by LC/MS/MS analysis. The data set is classed as ADME, cell-free.
Data set [9] is described as follows: Half life in Sprague-Dawley rat at 0.5 mg/kg, iv or 3 mg/kg, po measured upto 24 hrs by LC/MS/MS analysis. The settings on record: in vivo. The class given is ADME, organism-based.
Data set [10] concerns the target Epithelial discoidin domain-containing receptor 1 (Homo sapiens, UniProt Q08345). The experiment in a line: Inhibition of FLAG-tagged DDR1 in human HEK293 cells assessed as reduction in collagen-1-induced DDR1 phosphorylation incubated for 18 hrs by ELISA. On the technique in general: ELISA stands for enzyme-linked immunosorbent assay.
A short description of data set [11]: Cytotoxicity against mesangial cells (unknown origin) expressing Hu-DDR1b assessed as reduction in cell viability at 1 uM incubated for 24 hrs by microscopic analysis. The class given is cell-based.

Chain of Epithelial discoidin domain-containing receptor 1 (Q08345 whole entry, the tested form may be a part): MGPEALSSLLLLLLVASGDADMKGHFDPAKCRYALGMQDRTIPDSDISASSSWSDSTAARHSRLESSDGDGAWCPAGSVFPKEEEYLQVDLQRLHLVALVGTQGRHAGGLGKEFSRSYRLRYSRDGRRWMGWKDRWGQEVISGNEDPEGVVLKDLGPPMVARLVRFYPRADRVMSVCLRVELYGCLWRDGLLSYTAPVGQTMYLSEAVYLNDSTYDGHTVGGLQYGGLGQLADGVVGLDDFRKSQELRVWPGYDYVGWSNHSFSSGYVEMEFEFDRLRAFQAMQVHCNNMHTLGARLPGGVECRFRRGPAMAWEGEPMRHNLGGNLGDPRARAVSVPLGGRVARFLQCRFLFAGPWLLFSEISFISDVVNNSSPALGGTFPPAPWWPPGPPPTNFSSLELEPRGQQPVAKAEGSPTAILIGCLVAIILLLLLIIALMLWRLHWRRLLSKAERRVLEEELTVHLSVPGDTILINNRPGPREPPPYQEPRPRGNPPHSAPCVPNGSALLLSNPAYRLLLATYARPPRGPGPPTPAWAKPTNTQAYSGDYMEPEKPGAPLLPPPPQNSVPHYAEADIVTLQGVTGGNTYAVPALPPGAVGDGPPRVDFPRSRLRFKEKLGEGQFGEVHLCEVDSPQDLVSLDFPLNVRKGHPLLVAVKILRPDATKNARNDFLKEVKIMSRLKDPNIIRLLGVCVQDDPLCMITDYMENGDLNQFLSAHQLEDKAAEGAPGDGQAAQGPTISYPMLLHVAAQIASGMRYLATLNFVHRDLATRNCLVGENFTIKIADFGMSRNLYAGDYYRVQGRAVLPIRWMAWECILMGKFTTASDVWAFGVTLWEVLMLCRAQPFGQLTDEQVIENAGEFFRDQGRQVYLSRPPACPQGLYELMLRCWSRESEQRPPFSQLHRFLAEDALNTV

Consider `Cc1ccc(C(=O)Nc2cccc(C(F)(F)F)c2)cc1NCc1cncc(C(N)=O)c1`, for which the IC50 – broadly, the midpoint of a concentration-inhibition curve – in [1] is 4.79 nM.
Turning to `Cc1ccc(C(=O)Nc2cccc(C(F)(F)F)c2)cc1NCc1cccnc1`, in data set [1], the IC50 amounted to 10.6 nM.
Consider `COc1cncc(CNc2cc(C(=O)Nc3cccc(C(F)(F)F)c3)ccc2C)c1`, for which the IC50 in data set [1] was determined as 6.36 nM.
On to `Cc1ccc(C(=O)Nc2ccc(C)c(C(F)(F)F)c2)cc1NCc1cncc(-c2ccc[nH]2)c1`, for which, in [1], the IC50 turned out to be 44.1 nM.
For `Cn1ccc(-c2cncc(CNc3cc(C(=O)Nc4cccc(OC(F)(F)F)c4)ccc3F)c2)n1`, the Activity result in data set [2] is given as “Non-Toxic”. Besides, in data set [3], the CLint scaled at 1 µM amounted to 43.2 mL/min/kg. Further, in data set [4], the bioavailability (commonly dose-corrected exposure relative to a reference, in per cent) was found to be 12.5%. Besides, the clearance in data set [5] was 34.2 mL/min/kg. Moreover, the Vd in data set [6] came to 4.3 L/kg. In addition, in data set [7], the Tmax – broadly, the time at which the peak concentration occurs – was determined as 0.75 h. Besides, in [1], the concentration for half-maximal inhibition (IC50) came out at 7.39 nM. Moreover, the fraction unbound (as a rule, the share of the substance not bound to proteins or other matrix) at 4 h in data set [8] came out at 0.089. Further, the half-life (as a rule, how long it takes for the measured level to halve) in data set [9] is 3 h.
For the molecule `Cc1ccc(C(=O)Nc2cccc(C(F)(F)F)c2)cc1NCc1cncc(-c2ccn(C)n2)c1`, the CLint scaled at 1 µM in data set [3] stood at 46 mL/min/kg. Also, in data set [1], the IC50 amounted to 4.56 nM. The molecule also yielded a fraction unbound at 4 h in data set [8] of 0.016.
With `Cc1ccc(C(=O)Nc2cccc(C(F)(F)F)c2)cc1NCc1cncc(-c2ccc[nH]2)c1`, the CLint scaled at 1 µM in [3] was found to be 62 mL/min/kg. Further, the IC50 in [1] is 11 nM. Moreover, in data set [8], the fraction unbound at 4 h is 0.001.
Take `Cc1ccc(C(=O)Nc2cccc(C(F)(F)F)c2)cc1Nc1cncc(C(N)=O)c1`: in [3], the CLint scaled at 1 µM is 60 mL/min/kg. In [10], the IC50 turned out to be 4.8 nM. For the same molecule, in data set [11], the Activity entry was “Toxic”. This molecule also had a fraction unbound at 4 h in [8] of 0.018.

The values are drawn from ChEMBL document CHEMBL4334539, “Discovery of VU6015929: A Selective Discoidin Domain Receptor 1/2 (DDR1/2) Inhibitor to Explore the Role of DDR1 in Antifibrotic Therapy” (ACS Med Chem Lett, 2020).
